In assay [1] the target is T1, Avi-KRAS G12D (1-169) GppNHp/RAF1 RBD-3xFLAG (52-151) (Homo sapiens, UniProt P01116, G12D).
T1 construct: 100 nM Avi-KRAS G12D (1-169) GppNHp
As to the kind of experiment: RAS-effector PPI HTRF disruption assay, Raf1-GppNHp-KRAS G12D. Type of assay: biochemical. Here is the method:
(§1) A protein:protein interaction (PPI) Homogeneous Time Resolved Fluorescence (HTRF) assay was used to determine the effectiveness of compounds of the present disclosure in disrupting KRAS protein and effector (RAF1 or PIK3 CA) binding.
(§2) The HTRF assay used the following reagents and proteins: (i) 375 nM Avi-KRAS G12D/Q25A (1-169) GppNHp/3×FLAG-PI3KCA (157-299); (ii) 100 nM Avi-KRAS G12D (1-169) GppNHp/RAF1 RBD-3×FLAG (52-151); (iii) 50 nM Avi-KRAS G12V (1-169) GppNHp/RAF1 RBD-3×FLAG (52-151); (iv) 50 nM Avi-KRAS WT (1-169) GppNHp/RAF1 RBD-3×FLAG (52-151); and (v) 35 nM Avi-PI3K RBD CA-3×FLAG; Assay Buffer: 50 mM Tris pH 7.5, 100 mM NaCl, 5 mM MgCl2, 0.1% BSA, 0.01% Tween, 1 mM TCEP, 10% DMSO; Bead Buffer: 50 mM Tris pH 7.5, 0.01% Tween 20; Assay volume: 20 μL (384 well plate-low volume format); and Compound titration: 100-0.02 μM, 3× dilution series.
(§3) The HTRF assay employed the following protocol:
(§4) Compounds were dispensed in assay plate (384-well, Grenier Bione #784075) using Echo (model 555) with dose response settings: 200 nL final volume, titration from 100 μM as a 10-point dilution series. Protein mix was prepared in assay buffer, and dispensed on plates, 10 μL per well, then incubated for 1 h at room temperature, with 700 rpm shaking. Reagents mix was prepared and dispensed on plates, 10 μL per well, then incubated for 1 h at room temperature, with 700 rpm shaking.
(§5) Plates were analyzed on an Envision plate reader using the following setting: Excitation 320 nm, Bandwidth […]; Emission 615 nm, Bandwidth […], Gain 100%, Flashes 100, Lag 60 μs. Data was reported as percentage of activity, with DMSO as 100%. Data was plotted and analyzed using Prism 8. The SPR Kd, biochemical Raf1-KRAS G12D/G12V/WT-GppNHP and PI3KCA-KRAS G12D/Q25A-GppNHp disruption assay IC50 of selected compounds described herein are shown in Table 4.

Assay [2] addresses T2, Avi-KRAS WT (1-169) GppNHp/RAF1 RBD-3xFLAG (52-151) (Homo sapiens, UniProt P01116).
T2 construct: 50 nM Avi-KRAS WT (1-169) GppNHp
The experiment in a line: RAS-effector PPI HTRF disruption assay, Raf1-GppNHp-KRAS WT. Type of assay: biochemical. Here is the method:
as §1, §2, §3, §4, §5
(TR-FRET usually uses a lanthanide donor and a delayed reading to cut background.)

Assay [3] addresses T3, Avi-KRAS G12V (1-169) GppNHp/RAF1 RBD-3xFLAG (52-151) (Homo sapiens, UniProt P01116, G12V).
T3 construct: 50 nM Avi-KRAS G12V (1-169) GppNHp
As to the kind of experiment: RAS-effector PPI HTRF disruption assay, Raf1-GppNHp-KRAS G12V. Type of assay: biochemical. Here is the method:
as §1, §2, §3, §4, §5

Assay [4] deals with pERK in GP2d cells (KRAS G12D). The experiment in a line: Cell-based pERK HTRF assay in GP2d cell. The note with it: 60 min incubation. Here is the method: A pERK assay (Perkin Elmer) was used to determine the effectiveness of compounds in disrupting KRAS G12D protein/effector signaling in cells.
On Day 1, cells (GP2d) were seeded into 96-well plates at 3×10^4 cells/well in 80 μL complete growth media (DMEM, 10% FBS).
On Day 2, cells were treated with compounds at 0.25% DMSO. The source plate was created with compounds diluted in media at 5-fold the final assay concentration. The compounds were run in a 9-point concentration curve starting at 1 μM, with a half-log dilution between concentrations. 20 μL was transferred onto the cell plates (final volume in wells was 100 μL). Plates were harvested after 60 min incubation by aspirating media and adding kit-supplied 1× supplemented lysis buffer to all wells (50 μL per well). Plates were then placed on a plate shaker and incubated at 850 rpm for an additional 30 min.
Antibody mixture solution is prepared by diluting aliquoted d2 and Eu Cryptate antibodies 1:20 in kit supplied detection buffer, mix the diluted antibodies solutions (1:1 v:v). 4 μL of this solution is then added to a 384-well detection plate (Perkin Elmer; 6008230).
Samples were homogenized by pipetting up and down and then transferred (16 μL of cell lysates) from the 96-well cell culture plate to two wells of the HTRF 384-well detection plate containing the antibody solution. Plates were centrifuged (524 g for 1 min) and allowed to incubate between 4 and 24 h at room temperature. Maximum signal is reached after 4 h incubation time and remains stable over a period of 24 hours. Therefore, readings can be made between 4 and 24 h of incubation. Plates were centrifuged again (524 g for Imin), then analyzed on the EnVision plate reader using the following settings: Excitation 320 nm, Bandwidth 75 nm; Emission 615 nm, Bandwidth 85 nm; Gain 100%; Flashes 100; Lag 60 μs.

Molecules are shown by their SMILES. Read-outs that look alike come from different tables or passages of the source.

T1 sequence (P01116 1-169 isoform P01116-2 G12D): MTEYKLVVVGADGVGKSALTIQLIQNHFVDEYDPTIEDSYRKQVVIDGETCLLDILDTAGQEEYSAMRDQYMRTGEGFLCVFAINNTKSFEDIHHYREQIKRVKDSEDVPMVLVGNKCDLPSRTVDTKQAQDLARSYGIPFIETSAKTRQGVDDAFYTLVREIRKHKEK
T2 sequence (P01116 1-169 isoform P01116-2): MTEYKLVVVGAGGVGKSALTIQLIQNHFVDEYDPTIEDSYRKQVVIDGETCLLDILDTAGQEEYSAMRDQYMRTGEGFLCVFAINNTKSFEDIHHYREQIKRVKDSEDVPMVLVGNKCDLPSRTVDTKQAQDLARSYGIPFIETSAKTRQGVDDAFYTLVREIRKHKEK
T3 sequence (P01116 1-169 isoform P01116-2 G12V): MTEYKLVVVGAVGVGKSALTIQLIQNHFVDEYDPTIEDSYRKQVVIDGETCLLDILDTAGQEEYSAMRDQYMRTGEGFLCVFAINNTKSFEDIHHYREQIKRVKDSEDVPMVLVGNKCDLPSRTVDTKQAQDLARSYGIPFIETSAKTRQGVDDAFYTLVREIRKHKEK

`N#Cc1c(N)sc2c(F)ccc(-c3c(C(F)(F)F)cc4c(O[C@H]5CCC6(CNC6)C5)nc(OC[C@@]56CCCN5C[C@H](F)C6)nc4c3F)c12` (atropisomer, axis not shown) [Compound 78]: the IC50 in assay [1] is 1000 to 10000 nM; in assay [2], 1000 to 10000 nM; in assay [3] it was over 10000 nM; in assay [4] (read-out: pERK-Gp2D-1 hr), over 1000 nM.

In the case of `N#Cc1c(N)sc2c(F)ccc(-c3c(C(F)(F)F)cc4c(O[C@H]5CCC6(CNC6)C5)nc(OC[C@@]56CCCN5C[C@H](F)C6)nc4c3F)c12` (atropisomer, axis not shown) [Compound 79], the IC50 in assay [1], in assay [2], in assay [3] and in assay [4] (read-out: pERK-Gp2D-1 hr) was at most 100 nM throughout.

With `COC[C@H]1C[C@@H](Oc2nc(OC[C@@]34CCCN3C[C@H](F)C4)nc3c(F)c(-c4ccc(F)c5sc(N)c(C#N)c45)c(C(F)(F)F)cc23)CN1` (atropisomer, axis not shown) [Compound 80], the IC50 is at most 100 nM in assay [1], 100 to 1000 nM in assay [2], 100 to 1000 nM in assay [3] and at most 100 nM in assay [4] (read-out: pERK-Gp2D-1 hr).

`COC[C@H]1C[C@@H](Oc2nc(OC[C@@]34CCCN3C[C@H](F)C4)nc3c(F)c(-c4ccc(F)c5sc(N)c(C#N)c45)c(C(F)(F)F)cc23)CN1` (atropisomer, axis not shown) [Compound 81]: the IC50 in assay [1] is over 10000 nM; in assay [2], over 10000 nM; in assay [3], over 10000 nM; in assay [4] (read-out: pERK-Gp2D-1 hr), over 1000 nM.

Consider `COC[C@@H]1C[C@@H](Oc2nc(OC[C@@]34CCCN3C[C@H](F)C4)nc3c(F)c(-c4ccc(F)c5sc(N)c(C#N)c45)c(C(F)(F)F)cc23)CN1` (atropisomer, axis not shown) [Compound 84], for which the IC50 is at most 100 nM in assay [1]; 100 to 1000 nM in assay [2]; 100 to 1000 nM in assay [3]; at most 100 nM in assay [4] (GP2d, 1 h).

On to `N#Cc1c(N)sc2c(F)ccc(-c3c(C(F)(F)F)cc4c(O[C@@H]5CCC6(CNC6)C5)nc(OC[C@@]56CCCN5C[C@H](F)C6)nc4c3F)c12` (atropisomer, axis not shown) [Compound 85], for which the IC50 in assay [1] was at most 100 nM; in assay [2], at most 100 nM; in assay [3] it was 100 to 1000 nM; in assay [4] (GP2d, 1 h), 100 to 1000 nM.

`C[C@H]1CNCC1Oc1nc(OC[C@@]23CCCN2C[C@H](F)C3)nc2c(F)c(-c3ccc(F)c4sc(N)nc34)c(C(F)(F)F)cc12` (some centres unmarked) [Compound 1] showed an IC50 in assay [1] of 1000 to 10000 nM.

As to `CN1CCC[C@H]1COc1nc(OC2CNC2)c2cc(Cl)c(-c3ccc(F)c4sc(N)nc34)c(F)c2n1` [Compound 3], the IC50 in assay [1] is over 10000 nM.

Turning to `Nc1nc2c(-c3c(C(F)(F)F)cc4c(O[C@@H]5CCNC5)nc(OCC56CCCN5C[C@H](F)C6)nc4c3F)ccc(F)c2s1` (some centres unmarked) [Compound 4], the IC50 in assay [4] (GP2d, 1 h) was at most 100 nM.

Take `N#Cc1c(N)sc2c(F)ccc(-c3c(C(F)(F)F)cc4c(OC5CCC6(CC5)CNC6)nc(OC[C@@]56CCCN5C[C@H](F)C6)nc4c3F)c12` [Compound 40]: the IC50 is at most 100 nM in assay [1]; at most 100 nM in assay [2]; 100 to 1000 nM in assay [3]; 100 to 1000 nM in assay [4] (GP2d, 1 h).

For the compound `N#Cc1c(N)sc2c(F)ccc(-c3c(C(F)(F)F)cc4c(OC5CC6(CNC6)C5)nc(OC[C@@]56CCCN5C[C@H](F)C6)nc4c3F)c12` [Compound 43], the IC50 in assay [1] lay in the range of 100 to 1000 nM; in assay [2] it was 100 to 1000 nM; in assay [3] it was 100 to 1000 nM; in assay [4] (GP2d, 1 h), 100 to 1000 nM.

Take `Nc1nc2c(-c3ccc4c(O[C@H]5CNC[C@H]5F)nc(OC[C@@]56CCCN5C[C@H](F)C6)nc4c3F)ccc(F)c2s1` [Compound 82]: the IC50 was over 10000 nM in assay [1]; over 10000 nM in assay [2]; over 10000 nM in assay [3]; over 1000 nM in assay [4] (GP2d, 1 h).

Consider `C[C@H]1NCC[C@H]1Oc1nc(OC[C@@]23CCCN2C[C@H](F)C3)nc2c(F)c(-c3ccc(F)c4sc(N)nc34)ccc12` [Compound 83], for which the IC50 in assay [1] is over 10000 nM; in assay [2], over 10000 nM; in assay [3], over 10000 nM; in assay [4] (GP2d, 1 h), over 1000 nM.

In the case of `COC[C@H]1NCC[C@H]1Oc1nc(OC[C@@]23CCCN2C[C@H](F)C3)nc2c(F)c(-c3ccc(F)c4sc(N)c(C#N)c34)c(C(F)(F)F)cc12` [Compound 90], the IC50 is 100 to 1000 nM in assay [1]; 100 to 1000 nM in assay [2]; 1000 to 10000 nM in assay [3]; at most 100 nM in assay [4] (GP2d, 1 h).

For `COC[C@H]1NCC[C@H]1Oc1nc(OC[C@@]23CCCN2C[C@H](F)C3)nc2c(F)c(-c3ccc(F)c4sc(N)c(C#N)c34)ccc12` [Compound 91], the IC50 in assay [1] is over 10000 nM; in assay [2] it was over 10000 nM; in assay [3] it was over 10000 nM; in assay [4] (GP2d, 1 h), 100 to 1000 nM.

As to `N#Cc1c(-c2ccc(F)c3sc(N)c(C#N)c23)c(Cl)cc2c(O[C@H]3CNC[C@H]3F)nc(OC[C@@]34CCCN3C[C@H](F)C4)nc12` [Compound 92], the IC50 was 1000 to 10000 nM in assay [1]; 1000 to 10000 nM in assay [2]; over 10000 nM in assay [3]; 100 to 1000 nM in assay [4] (GP2d, 1 h).

Regarding `N#Cc1c(N)sc2c(F)ccc(-c3cc4nc(OC[C@@]56CCCN5C[C@H](F)C6)nc(O[C@@H]5CCNC5)c4nc3C(F)(F)F)c12` [Compound 93, 2-amino-7-fluoro-4-(2-(((2R,7aS)-2-fluorotetrahydro-1H-pyrrolizin-7a(5H)-yl)methoxy)-4-(((R)-pyrrolidin-3-yl)oxy)-6-(trifluoromethyl)pyrido[3,2-d]pyrimidin-7-yl)benzo[b]thiophene-3-carbonitrile], the IC50 in assay [1] is 1000 to 10000 nM; in assay [2] it was 1000 to 10000 nM; in assay [3], 1000 to 10000 nM; in assay [4] (GP2d, 1 h), at most 100 nM.

In the case of `C[C@@H]1C[C@@H](Oc2nc(OC[C@@]34CCCN3C[C@H](F)C4)nc3cc(-c4ccc(F)c5sc(N)c(C#N)c45)c(C(F)(F)F)nc23)CN1` [Compound 94], the IC50 in assay [1] is 1000 to 10000 nM; in assay [2] it was 1000 to 10000 nM; in assay [3] it was 1000 to 10000 nM; in assay [4] (GP2d, 1 h), at most 100 nM.

As for `C[C@@H]1C[C@@H](Oc2nc(OC[C@@]34CCCN3C[C@H](F)C4)nc3cc(-c4ccc(F)c5sc(N)c(C#N)c45)c(C(F)(F)F)nc23)CN1` [Compound 95], the IC50 in assay [1] was over 10000 nM; in assay [2], over 10000 nM; in assay [3], over 10000 nM; in assay [4] (read-out: pERK-Gp2D-1 hr) it was 100 to 1000 nM.

Regarding `C[C@H]1NCC[C@H]1Oc1nc(OC[C@@]23CCCN2C[C@H](F)C3)nc2cc(-c3ccc(F)c4sc(N)c(C#N)c34)c(C(F)(F)F)nc12` [Compound 96], the IC50 in assay [1] was 100 to 1000 nM; in assay [2], 100 to 1000 nM; in assay [3] it was 1000 to 10000 nM; in assay [4] (GP2d, 1 h), at most 100 nM.

These data come from patent US20250084079A1, “COMPOSITIONS AND METHODS FOR INHIBITION OF RAS” (TheRas, Inc., priority 2022, published 2025).
